# Assay results as given in US12290596B2, “Compositions and methods for the treatment of opioid overdose” (priority 2021, dated 2025).
# Experiment: Three-treatment crossover pharmacokinetics of IN nalmefene, three dosing regimens (Example 13)
# Details: human, plasma, […]
smiles,measurement,setting,value
"C=C1CC[C@@]2(O)[C@H]3Cc4ccc(O)c5c4[C@@]2(CCN3CC2CC2)[C@H]1O5 [Nalmefene, 17-cyclopropylmethyl-4,5α-epoxy-6-methylenemorphinan-3,14-diol]",concentration at 0 h,"other: intranasal (IN spray), 6 mg, Mean, Time 0.00, T3: 6 mg nalmefene HCl IN, two 0.1 mL sprays in one nostril",0 ng/mL
same,concentration at 2.5 min,"other: intranasal (IN spray), 6 mg, Mean, Time 0.0416, T3: 6 mg nalmefene HCl IN, two 0.1 mL sprays in one nostril",1.35 ng/mL
same,concentration at […],"other: intranasal (IN spray), 6 mg, Mean, Time 0.0833, T3: 6 mg nalmefene HCl IN, two 0.1 mL sprays in one nostril",5.05 ng/mL
same,concentration at […],"other: intranasal (IN spray), 6 mg, Mean, Time 0.166, T3: 6 mg nalmefene HCl IN, two 0.1 mL sprays in one nostril",14.1 ng/mL
same,concentration at […],"other: intranasal (IN spray), 6 mg, Mean, Time 0.250, T3: 6 mg nalmefene HCl IN, two 0.1 mL sprays in one nostril",16.9 ng/mL
same,concentration at […],"other: intranasal (IN spray), 6 mg, Mean, Time 0.333, T3: 6 mg nalmefene HCl IN, two 0.1 mL sprays in one nostril",14.6 ng/mL
same,concentration at […],"other: intranasal (IN spray), 6 mg, Mean, Time 0.750, T3: 6 mg nalmefene HCl IN, two 0.1 mL sprays in one nostril",9.92 ng/mL
same,concentration at 1 h,"other: intranasal (IN spray), 6 mg, Mean, Time 1.00, T3: 6 mg nalmefene HCl IN, two 0.1 mL sprays in one nostril",9.59 ng/mL
same,concentration at 2 h,"other: intranasal (IN spray), 6 mg, Mean, Time 2.00, T3: 6 mg nalmefene HCl IN, two 0.1 mL sprays in one nostril",8.86 ng/mL
same,concentration at 3 h,"other: intranasal (IN spray), 6 mg, Mean, Time 3.00, T3: 6 mg nalmefene HCl IN, two 0.1 mL sprays in one nostril",6.9 ng/mL
same,concentration at 4 h,"other: intranasal (IN spray), 6 mg, Mean, Time 4.00, T3: 6 mg nalmefene HCl IN, two 0.1 mL sprays in one nostril",5.37 ng/mL
same,concentration at 6 h,"other: intranasal (IN spray), 6 mg, Mean, Time 6.00, T3: 6 mg nalmefene HCl IN, two 0.1 mL sprays in one nostril",3.69 ng/mL
same,concentration at 8 h,"other: intranasal (IN spray), 6 mg, Mean, Time 8.00, T3: 6 mg nalmefene HCl IN, two 0.1 mL sprays in one nostril",2.69 ng/mL
same,concentration at 12 h,"other: intranasal (IN spray), 6 mg, Mean, Time 12.0, T3: 6 mg nalmefene HCl IN, two 0.1 mL sprays in one nostril",1.93 ng/mL
same,concentration at 18 h,"other: intranasal (IN spray), 6 mg, Mean, Time 18.0, T3: 6 mg nalmefene HCl IN, two 0.1 mL sprays in one nostril",1.11 ng/mL
same,concentration at 24 h,"other: intranasal (IN spray), 6 mg, Mean, Time 24.0, T3: 6 mg nalmefene HCl IN, two 0.1 mL sprays in one nostril",0.792 ng/mL
same,concentration at 48 h,"other: intranasal (IN spray), 6 mg, Mean, Time 48.0, T3: 6 mg nalmefene HCl IN, two 0.1 mL sprays in one nostril",0.182 ng/mL
same,concentration at 0 h,"other: intranasal (IN spray), 6 mg, Median, Time 0.00, T3: 6 mg nalmefene HCl IN, two 0.1 mL sprays in one nostril",0 ng/mL
same,concentration at 2.5 min,"other: intranasal (IN spray), 6 mg, Median, Time 0.0416, T3: 6 mg nalmefene HCl IN, two 0.1 mL sprays in one nostril",0.746 ng/mL
same,concentration at […],"other: intranasal (IN spray), 6 mg, Median, Time 0.0833, T3: 6 mg nalmefene HCl IN, two 0.1 mL sprays in one nostril",2.58 ng/mL
same,concentration at […],"other: intranasal (IN spray), 6 mg, Median, Time 0.125, T3: 6 mg nalmefene HCl IN, two 0.1 mL sprays in one nostril",4.96 ng/mL
same,concentration at […],"other: intranasal (IN spray), 6 mg, Median, Time 0.166, T3: 6 mg nalmefene HCl IN, two 0.1 mL sprays in one nostril",8.55 ng/mL
same,concentration at […],"other: intranasal (IN spray), 6 mg, Median, Time 0.250, T3: 6 mg nalmefene HCl IN, two 0.1 mL sprays in one nostril",12.8 ng/mL
same,concentration at […],"other: intranasal (IN spray), 6 mg, Median, Time 0.750, T3: 6 mg nalmefene HCl IN, two 0.1 mL sprays in one nostril",9.69 ng/mL
same,concentration at 1 h,"other: intranasal (IN spray), 6 mg, Median, Time 1.00, T3: 6 mg nalmefene HCl IN, two 0.1 mL sprays in one nostril",8.88 ng/mL
same,concentration at 2 h,"other: intranasal (IN spray), 6 mg, Median, Time 2.00, T3: 6 mg nalmefene HCl IN, two 0.1 mL sprays in one nostril",8.6 ng/mL
same,concentration at 3 h,"other: intranasal (IN spray), 6 mg, Median, Time 3.00, T3: 6 mg nalmefene HCl IN, two 0.1 mL sprays in one nostril",6.35 ng/mL
same,concentration at 4 h,"other: intranasal (IN spray), 6 mg, Median, Time 4.00, T3: 6 mg nalmefene HCl IN, two 0.1 mL sprays in one nostril",4.89 ng/mL
same,concentration at 6 h,"other: intranasal (IN spray), 6 mg, Median, Time 6.00, T3: 6 mg nalmefene HCl IN, two 0.1 mL sprays in one nostril",3.51 ng/mL
same,concentration at 8 h,"other: intranasal (IN spray), 6 mg, Median, Time 8.00, T3: 6 mg nalmefene HCl IN, two 0.1 mL sprays in one nostril",2.46 ng/mL
same,concentration at 12 h,"other: intranasal (IN spray), 6 mg, Median, Time 12.0, T3: 6 mg nalmefene HCl IN, two 0.1 mL sprays in one nostril",1.82 ng/mL
same,concentration at 18 h,"other: intranasal (IN spray), 6 mg, Median, Time 18.0, T3: 6 mg nalmefene HCl IN, two 0.1 mL sprays in one nostril",1.12 ng/mL
same,concentration at 24 h,"other: intranasal (IN spray), 6 mg, Median, Time 24.0, T3: 6 mg nalmefene HCl IN, two 0.1 mL sprays in one nostril",0.729 ng/mL
same,concentration at 48 h,"other: intranasal (IN spray), 6 mg, Median, Time 48.0, T3: 6 mg nalmefene HCl IN, two 0.1 mL sprays in one nostril",0.176 ng/mL
same,concentration at 0 h,"other: intranasal (IN) spray, 3 mg, Max, T1 (3 mg IN, one spray in one nostril), time 0.00",0 ng/mL
same,concentration at 2.5 min,"other: intranasal (IN) spray, 3 mg, Max, T1 (3 mg IN, one spray in one nostril), time 0.0416",0.766 ng/mL
same,concentration at […],"other: intranasal (IN) spray, 3 mg, Max, T1 (3 mg IN, one spray in one nostril), time 0.125",16.9 ng/mL
same,concentration at […],"other: intranasal (IN) spray, 3 mg, Max, T1 (3 mg IN, one spray in one nostril), time 0.166",20.4 ng/mL
same,concentration at […],"other: intranasal (IN) spray, 3 mg, Max, T1 (3 mg IN, one spray in one nostril), time 0.250",22.1 ng/mL
same,concentration at […],"other: intranasal (IN) spray, 3 mg, Max, T1 (3 mg IN, one spray in one nostril), time 0.333",20.2 ng/mL
same,concentration at 1 h,"other: intranasal (IN) spray, 3 mg, Max, T1 (3 mg IN, one spray in one nostril), time 1.00",9.54 ng/mL
same,concentration at 2 h,"other: intranasal (IN) spray, 3 mg, Max, T1 (3 mg IN, one spray in one nostril), time 2.00",7.64 ng/mL
same,concentration at 3 h,"other: intranasal (IN) spray, 3 mg, Mean, T1 (3 mg IN, one spray in one nostril), time 3.00",3.7 ng/mL
same,concentration at 4 h,"other: intranasal (IN) spray, 3 mg, Mean, T1 (3 mg IN, one spray in one nostril), time 4.00",2.99 ng/mL
same,concentration at 6 h,"other: intranasal (IN) spray, 3 mg, Mean, T1 (3 mg IN, one spray in one nostril), time 6.00",2.06 ng/mL
same,concentration at 8 h,"other: intranasal (IN) spray, 3 mg, Mean, T1 (3 mg IN, one spray in one nostril), time 8.00",1.44 ng/mL
same,concentration at 12 h,"other: intranasal (IN) spray, 3 mg, Mean, T1 (3 mg IN, one spray in one nostril), time 12.0",0.992 ng/mL
same,concentration at 18 h,"other: intranasal (IN) spray, 3 mg, Mean, T1 (3 mg IN, one spray in one nostril), time 18.0",0.591 ng/mL
same,concentration at 24 h,"other: intranasal (IN) spray, 3 mg, Mean, T1 (3 mg IN, one spray in one nostril), time 24.0",0.412 ng/mL
same,concentration at 48 h,"other: intranasal (IN) spray, 3 mg, Mean, T1 (3 mg IN, one spray in one nostril), time 48.0",0.0942 ng/mL
same,concentration at 2.5 min,"other: intranasal (IN) spray, 3 mg, Median, T1 (3 mg IN, one spray in one nostril), time 0.0416",0.362 ng/mL
same,concentration at […],"other: intranasal (IN) spray, 3 mg, Median, T1 (3 mg IN, one spray in one nostril), time 0.0833",1.29 ng/mL
same,concentration at […],"other: intranasal (IN) spray, 3 mg, Median, T1 (3 mg IN, one spray in one nostril), time 0.125",3.65 ng/mL
same,concentration at […],"other: intranasal (IN) spray, 3 mg, Median, T1 (3 mg IN, one spray in one nostril), time 0.166",6.28 ng/mL
same,concentration at […],"other: intranasal (IN) spray, 3 mg, Median, T1 (3 mg IN, one spray in one nostril), time 0.250",8.04 ng/mL
same,concentration at […],"other: intranasal (IN) spray, 3 mg, Median, T1 (3 mg IN, one spray in one nostril), time 0.333",8.07 ng/mL
same,concentration at […],"other: intranasal (IN) spray, 3 mg, Median, T1 (3 mg IN, one spray in one nostril), time 0.750",5.85 ng/mL
same,concentration at 2 h,"other: intranasal (IN) spray, 3 mg, Median, T1 (3 mg IN, one spray in one nostril), time 2.00",4.62 ng/mL
same,concentration at 3 h,"other: intranasal (IN) spray, 3 mg, Min, T1 (3 mg IN, one spray in one nostril), time 3.00",2.16 ng/mL
same,concentration at 4 h,"other: intranasal (IN) spray, 3 mg, Min, T1 (3 mg IN, one spray in one nostril), time 4.00",1.97 ng/mL
same,concentration at 0 h,"other: intranasal, 3 mg, Mean, T1 (3 mg IN, one spray in one nostril), time 0.00",0 ng/mL
same,concentration at 2.5 min,"other: intranasal, 3 mg, Mean, T1 (3 mg IN, one spray in one nostril), time 0.0416",0.353 ng/mL
same,concentration at […],"other: intranasal, 3 mg, Mean, T1 (3 mg IN, one spray in one nostril), time 0.0833",2.38 ng/mL
same,concentration at […],"other: intranasal, 3 mg, Mean, T1 (3 mg IN, one spray in one nostril), time 0.125",5.1 ng/mL
same,concentration at […],"other: intranasal, 3 mg, Mean, T1 (3 mg IN, one spray in one nostril), time 0.166",7.78 ng/mL
same,concentration at […],"other: intranasal, 3 mg, Mean, T1 (3 mg IN, one spray in one nostril), time 0.250",9.17 ng/mL
same,concentration at […],"other: intranasal, 3 mg, Mean, T1 (3 mg IN, one spray in one nostril), time 0.333",8.79 ng/mL
same,concentration at […],"other: intranasal, 3 mg, Mean, T1 (3 mg IN, one spray in one nostril), time 0.750",5.99 ng/mL
same,concentration at 1 h,"other: intranasal, 3 mg, Mean, T1 (3 mg IN, one spray in one nostril), time 1.00",5.47 ng/mL
same,concentration at 2 h,"other: intranasal, 3 mg, Mean, T1 (3 mg IN, one spray in one nostril), time 2.00",4.99 ng/mL
same,concentration at 0 h,"other: intranasal, 3 mg, Median, T1 (3 mg IN, one spray in one nostril), time 0.00",0 ng/mL
same,concentration at 1 h,"other: intranasal, 3 mg, Median, T1 (3 mg IN, one spray in one nostril), time 1.00",5.11 ng/mL
same,concentration at 0 h,"other: intranasal, 3 mg, Min, T1 (3 mg IN, one spray in one nostril), time 0.00",0 ng/mL
same,concentration at 2.5 min,"other: intranasal, 3 mg, Min, T1 (3 mg IN, one spray in one nostril), time 0.0416",0 ng/mL
same,concentration at […],"other: intranasal, 3 mg, Min, T1 (3 mg IN, one spray in one nostril), time 0.0833",0.319 ng/mL
same,concentration at […],"other: intranasal, 3 mg, Min, T1 (3 mg IN, one spray in one nostril), time 0.125",0.642 ng/mL
same,concentration at […],"other: intranasal, 3 mg, Min, T1 (3 mg IN, one spray in one nostril), time 0.166",1.09 ng/mL
same,concentration at […],"other: intranasal, 3 mg, Min, T1 (3 mg IN, one spray in one nostril), time 0.250",1.88 ng/mL
same,concentration at […],"other: intranasal, 3 mg, Min, T1 (3 mg IN, one spray in one nostril), time 0.333",1.97 ng/mL
same,concentration at […],"other: intranasal, 3 mg, Min, T1 (3 mg IN, one spray in one nostril), time 0.750",2.52 ng/mL
same,concentration at 2 h,"other: intranasal, 3 mg, Min, T1 (3 mg IN, one spray in one nostril), time 2.00",3.28 ng/mL
same,concentration at 0 h,"other: intranasal, 6 mg, individual subject, Time 0.00, T3: 6 mg nalmefene HCl IN, two 0.1 mL sprays in one nostril",0 ng/mL
